Series [1] deals with von Hippel-Lindau disease tumor suppressor/Histone-lysine N-methyltransferase EZH2 (Homo sapiens, UniProt Q15910+P40337, Y641N). The experiment in a line: PROTAC activity against VHL/EZH2 Y641N mutant in human DB cells assessed as degradation of EZH2 protein expression incubated for 24 hrs by Western blot analysis. The format is cell-based.
Series [2] is described as follows: Oral bioavailability in rat at 5 mg/kg by LC-MS/MS analysis. The settings on record: in vivo. The format is ADME, organism-based.
Series [3] in a line: Oral bioavailability in mouse at 5 mg/kg by LC-MS/MS analysis. The format is ADME, organism-based. The note with it: in vivo.
A short description of series [4]: Oral bioavailability in mouse. The format is ADME, organism-based. The note with it: in vivo.
The target of series [5] is von Hippel-Lindau disease tumor suppressor/Bromodomain-containing protein 9 (Homo sapiens, UniProt Q9H8M2+P40337). The experiment in a line: PROTAC activity at VHL/BRD9 in human HeLa cells assessed as induction of protein degradation […]. The format is cell-based.
Series [6] can be described thus: Cmax in CD-1 mouse plasma at 10 mg/kg, po by LC-MS/MS analysis. The format is ADME, organism-based.
The nature of series [7]: Half life in CD-1 mouse at 10 mg/kg, po measured for 24 hrs by LC-MS/MS analysis. The note with it: in vivo. The format is ADME, organism-based.
Series [8] in a line: AUC (0 to t) in CD-1 mouse at 10 mg/kg, po measured for 24 hrs by LC-MS/MS analysis. The format is ADME, organism-based. The settings on record: in vivo.
A short description of series [9]: Cmax in C57BL/6 mouse at 30 mg/kg, po by LC-MS/MS analysis. The format is ADME, organism-based. The note with it: in vivo.
Series [10] in a line: Tmax in C57BL/6 mouse at 30 mg/kg, po by LC-MS/MS analysis. The format is ADME, organism-based. The note with it: in vivo.
Series [11] in a line: Half life in C57BL/6 mouse at 30 mg/kg, po by LC-MS/MS analysis. The format is ADME, organism-based. The note with it: in vivo.
A short description of series [12]: AUC (0 to t) in C57BL/6 mouse at 30 mg/kg, po by LC-MS/MS analysis. The format is ADME, organism-based. The note with it: in vivo.
Series [13] in a line: Oral availability in ICR mouse at 30 mg/kg by HPLC-MS/MS analysis. The settings on record: in vivo. The format is ADME, organism-based.
Series [14] in a line: AUC (0 to t) in ICR mouse at 30 mg/kg, po measured upto 24 hrs by HPLC-MS/MS analysis. The format is ADME, organism-based. The note with it: in vivo.
Series [15] has as its target Protein cereblon/Tyrosine-protein kinase BTK (Homo sapiens, UniProt Q06187+Q96SW2, C481S). The experiment in a line: PROTAC activity at CRBN/BTK in human TMD8 cells assessed as protein degradation. The format is cell-based.
For series [16], the system named is Protein cereblon/Tyrosine-protein kinase BTK (Homo sapiens), Q06187+Q96SW2 [C481S]. The experiment in a line: PROTAC activity at CRBN/BTK in human TMD8 cells assessed as maximal protein degradation relative to control. The format is cell-based.
Series [17] in a line: Oral bioavailability in Sprague-Dawley rat at 5 mg/kg incubated for 24 hrs by LC-MS/MS analysis. The note with it: in vivo. The format is ADME, organism-based.
Series [18] is described as follows: Oral bioavailability in ICR mouse at 5 mg/kg by LC-MS/SM analysis. The format is ADME, organism-based. The settings on record: in vivo.
Series [19] can be described thus: Clearance in mouse at 10 mg/kg, po measured upto 24 hrs by LC-MS/MS analysis. The format is ADME, organism-based. The note with it: in vivo.
Series [20] is described as follows: Clearance in Sprague-Dawley rat at 0.5 mg/kg, iv. The format is ADME, organism-based. The note with it: in vivo.
For series [21], the target named is Voltage-gated inwardly rectifying potassium channel KCNH2 (Homo sapiens, UniProt Q12809). The experiment in a line: Inhibition of hERG (unknown origin). The format is toxicity.
The next series addresses Cytochrome P450 3A4 (Homo sapiens, UniProt P08684). The experiment in a line: Inhibition of CYP3A4 (unknown origin). The format is ADME.
The next series has as its target Cytochrome P450 2C19 (Homo sapiens, UniProt P33261). The experiment in a line: Inhibition of CYP2C19 (unknown origin). The format is ADME.
A further series has as its target Cytochrome P450 2D6 (Homo sapiens, UniProt P10635). The experiment in a line: Inhibition of CYP2D6 (unknown origin). The format is ADME.
Series [22] addresses T1, Protein cereblon/Leucine-rich repeat serine/threonine-protein kinase 2 (Homo sapiens, UniProt Q5S007+Q96SW2). The experiment in a line: PROTAC activity at CRBN/LRRK2 in human MOLT-4 cells assessed as induction of LRRK2 degradation at 1 uM by Western blot analysis relative to control. The format is cell-based.
The target in series [23] is T1, Protein cereblon/Leucine-rich repeat serine/threonine-protein kinase 2. The experiment in a line: PROTAC activity at CRBN/LRRK2 in human MOLT-4 cells assessed as induction of LRRK2 degradation incubated for 48 hrs by Western blot analysis. The format is cell-based.

The values below come from ChEMBL document CHEMBL5512598, “Current advances and development strategies of orally bioavailable PROTACs” (Eur J Med Chem, 2023).

Chain of von Hippel-Lindau disease tumor suppressor/Bromodomain-containing protein 9 (Q9H8M2 whole entry): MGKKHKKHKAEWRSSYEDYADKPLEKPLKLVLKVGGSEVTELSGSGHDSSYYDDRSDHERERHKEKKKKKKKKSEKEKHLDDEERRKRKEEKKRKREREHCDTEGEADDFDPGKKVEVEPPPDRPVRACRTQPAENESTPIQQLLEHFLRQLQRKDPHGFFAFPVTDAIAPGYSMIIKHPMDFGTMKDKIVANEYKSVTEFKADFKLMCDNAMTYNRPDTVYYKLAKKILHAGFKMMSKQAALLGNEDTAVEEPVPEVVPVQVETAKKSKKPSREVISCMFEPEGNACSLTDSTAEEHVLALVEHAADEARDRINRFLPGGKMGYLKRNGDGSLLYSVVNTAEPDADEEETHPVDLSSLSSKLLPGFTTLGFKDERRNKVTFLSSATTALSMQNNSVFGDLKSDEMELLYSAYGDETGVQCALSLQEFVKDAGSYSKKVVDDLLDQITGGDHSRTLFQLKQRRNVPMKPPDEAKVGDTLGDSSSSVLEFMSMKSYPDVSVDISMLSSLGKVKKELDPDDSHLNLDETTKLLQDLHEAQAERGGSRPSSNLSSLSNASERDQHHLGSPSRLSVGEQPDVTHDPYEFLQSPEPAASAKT
Chain of von Hippel-Lindau disease tumor suppressor/Bromodomain-containing protein 9 (P40337 whole entry): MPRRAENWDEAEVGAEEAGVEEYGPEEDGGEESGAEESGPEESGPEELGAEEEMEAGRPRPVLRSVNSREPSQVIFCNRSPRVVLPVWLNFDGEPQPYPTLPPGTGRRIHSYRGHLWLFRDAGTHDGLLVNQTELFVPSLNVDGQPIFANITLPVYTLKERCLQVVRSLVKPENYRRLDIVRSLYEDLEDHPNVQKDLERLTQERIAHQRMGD
Chain of Voltage-gated inwardly rectifying potassium channel KCNH2 (Q12809 whole entry): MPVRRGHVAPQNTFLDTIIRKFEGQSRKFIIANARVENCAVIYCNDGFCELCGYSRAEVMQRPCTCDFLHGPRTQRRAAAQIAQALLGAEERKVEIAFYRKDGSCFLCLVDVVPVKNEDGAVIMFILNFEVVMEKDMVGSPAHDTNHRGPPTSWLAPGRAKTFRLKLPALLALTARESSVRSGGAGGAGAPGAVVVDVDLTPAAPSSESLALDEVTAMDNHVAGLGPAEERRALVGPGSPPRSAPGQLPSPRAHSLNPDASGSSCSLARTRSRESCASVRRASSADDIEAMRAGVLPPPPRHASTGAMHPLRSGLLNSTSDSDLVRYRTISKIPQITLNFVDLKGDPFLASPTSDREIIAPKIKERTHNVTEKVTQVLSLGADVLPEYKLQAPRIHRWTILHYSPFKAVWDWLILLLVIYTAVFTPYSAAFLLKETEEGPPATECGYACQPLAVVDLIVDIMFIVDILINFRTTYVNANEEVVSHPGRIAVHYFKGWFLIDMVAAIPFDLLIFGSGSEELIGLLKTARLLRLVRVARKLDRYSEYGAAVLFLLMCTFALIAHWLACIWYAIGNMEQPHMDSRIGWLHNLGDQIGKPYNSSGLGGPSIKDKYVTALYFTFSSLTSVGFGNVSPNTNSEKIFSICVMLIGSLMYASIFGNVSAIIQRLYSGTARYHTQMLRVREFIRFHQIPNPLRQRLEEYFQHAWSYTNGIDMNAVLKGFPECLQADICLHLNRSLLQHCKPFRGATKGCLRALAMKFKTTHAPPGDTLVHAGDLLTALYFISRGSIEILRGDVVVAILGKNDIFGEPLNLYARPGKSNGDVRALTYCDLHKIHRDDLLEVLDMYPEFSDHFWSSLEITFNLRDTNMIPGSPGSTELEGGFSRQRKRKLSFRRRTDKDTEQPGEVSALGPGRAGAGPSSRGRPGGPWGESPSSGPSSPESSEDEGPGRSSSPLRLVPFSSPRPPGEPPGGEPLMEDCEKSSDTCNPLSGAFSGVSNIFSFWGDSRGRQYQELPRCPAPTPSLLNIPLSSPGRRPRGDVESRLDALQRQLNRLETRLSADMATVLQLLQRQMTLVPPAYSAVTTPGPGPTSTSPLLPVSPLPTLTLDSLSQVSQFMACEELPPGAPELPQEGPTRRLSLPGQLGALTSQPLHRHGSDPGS
Chain of Protein cereblon/Tyrosine-protein kinase BTK (Q06187 2-659 C481S limits assumed, stated change not applied): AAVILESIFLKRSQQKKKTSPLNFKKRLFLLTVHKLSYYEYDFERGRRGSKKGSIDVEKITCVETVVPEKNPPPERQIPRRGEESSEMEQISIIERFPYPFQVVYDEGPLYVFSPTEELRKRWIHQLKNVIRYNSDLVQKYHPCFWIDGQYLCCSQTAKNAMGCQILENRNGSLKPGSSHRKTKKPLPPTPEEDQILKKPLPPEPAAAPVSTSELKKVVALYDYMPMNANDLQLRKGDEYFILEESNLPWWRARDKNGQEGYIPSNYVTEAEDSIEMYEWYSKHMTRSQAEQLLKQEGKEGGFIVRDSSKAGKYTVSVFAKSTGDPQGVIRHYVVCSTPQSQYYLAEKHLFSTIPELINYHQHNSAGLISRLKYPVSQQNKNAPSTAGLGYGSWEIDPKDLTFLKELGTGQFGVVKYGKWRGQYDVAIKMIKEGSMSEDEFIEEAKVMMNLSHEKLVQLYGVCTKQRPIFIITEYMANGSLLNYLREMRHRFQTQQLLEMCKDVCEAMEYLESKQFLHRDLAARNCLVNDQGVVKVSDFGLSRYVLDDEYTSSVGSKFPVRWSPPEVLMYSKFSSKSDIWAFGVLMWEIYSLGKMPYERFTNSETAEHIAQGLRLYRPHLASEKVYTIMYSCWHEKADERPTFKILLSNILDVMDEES
Chain of Protein cereblon/Tyrosine-protein kinase BTK (Q96SW2 whole entry, stated change not applied): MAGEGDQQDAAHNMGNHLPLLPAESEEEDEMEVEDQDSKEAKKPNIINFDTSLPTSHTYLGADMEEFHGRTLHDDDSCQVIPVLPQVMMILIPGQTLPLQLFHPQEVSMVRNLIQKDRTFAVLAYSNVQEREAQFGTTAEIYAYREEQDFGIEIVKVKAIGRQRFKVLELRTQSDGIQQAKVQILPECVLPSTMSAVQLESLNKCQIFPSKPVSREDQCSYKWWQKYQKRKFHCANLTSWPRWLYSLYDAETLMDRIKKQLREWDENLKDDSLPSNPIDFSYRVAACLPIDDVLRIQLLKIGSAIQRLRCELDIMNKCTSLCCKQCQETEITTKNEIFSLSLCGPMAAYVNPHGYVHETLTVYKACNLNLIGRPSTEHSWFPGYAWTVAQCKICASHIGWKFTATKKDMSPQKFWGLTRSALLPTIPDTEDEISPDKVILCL
Chain of Cytochrome P450 2D6 (P10635 whole entry): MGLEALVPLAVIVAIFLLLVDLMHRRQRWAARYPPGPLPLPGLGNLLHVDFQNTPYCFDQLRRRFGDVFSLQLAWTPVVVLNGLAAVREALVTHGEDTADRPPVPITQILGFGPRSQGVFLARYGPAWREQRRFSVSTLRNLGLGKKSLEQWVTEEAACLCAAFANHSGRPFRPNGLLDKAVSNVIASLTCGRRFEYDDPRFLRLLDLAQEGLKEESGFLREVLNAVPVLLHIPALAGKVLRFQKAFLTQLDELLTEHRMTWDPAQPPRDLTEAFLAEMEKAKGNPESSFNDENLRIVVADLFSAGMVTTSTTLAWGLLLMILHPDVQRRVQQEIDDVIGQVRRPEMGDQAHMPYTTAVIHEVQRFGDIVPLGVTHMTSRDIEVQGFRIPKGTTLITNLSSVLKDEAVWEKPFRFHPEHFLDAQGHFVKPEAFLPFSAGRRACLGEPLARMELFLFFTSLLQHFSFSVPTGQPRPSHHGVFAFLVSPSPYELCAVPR
Chain of Cytochrome P450 3A4 (P08684 whole entry): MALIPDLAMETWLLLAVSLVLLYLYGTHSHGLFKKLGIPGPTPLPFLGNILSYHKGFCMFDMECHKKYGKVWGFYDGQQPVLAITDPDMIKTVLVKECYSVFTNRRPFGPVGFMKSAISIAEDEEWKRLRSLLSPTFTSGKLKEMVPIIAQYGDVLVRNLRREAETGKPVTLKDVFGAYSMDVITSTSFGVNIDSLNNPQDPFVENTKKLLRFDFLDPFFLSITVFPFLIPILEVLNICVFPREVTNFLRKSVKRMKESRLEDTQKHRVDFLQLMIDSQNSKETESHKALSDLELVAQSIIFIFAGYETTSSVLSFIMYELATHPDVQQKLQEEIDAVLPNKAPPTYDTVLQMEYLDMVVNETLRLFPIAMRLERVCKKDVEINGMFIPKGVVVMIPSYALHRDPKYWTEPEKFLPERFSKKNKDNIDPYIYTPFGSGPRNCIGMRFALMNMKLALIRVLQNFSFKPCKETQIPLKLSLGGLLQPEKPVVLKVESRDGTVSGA
Chain of Cytochrome P450 2C19 (P33261 whole entry): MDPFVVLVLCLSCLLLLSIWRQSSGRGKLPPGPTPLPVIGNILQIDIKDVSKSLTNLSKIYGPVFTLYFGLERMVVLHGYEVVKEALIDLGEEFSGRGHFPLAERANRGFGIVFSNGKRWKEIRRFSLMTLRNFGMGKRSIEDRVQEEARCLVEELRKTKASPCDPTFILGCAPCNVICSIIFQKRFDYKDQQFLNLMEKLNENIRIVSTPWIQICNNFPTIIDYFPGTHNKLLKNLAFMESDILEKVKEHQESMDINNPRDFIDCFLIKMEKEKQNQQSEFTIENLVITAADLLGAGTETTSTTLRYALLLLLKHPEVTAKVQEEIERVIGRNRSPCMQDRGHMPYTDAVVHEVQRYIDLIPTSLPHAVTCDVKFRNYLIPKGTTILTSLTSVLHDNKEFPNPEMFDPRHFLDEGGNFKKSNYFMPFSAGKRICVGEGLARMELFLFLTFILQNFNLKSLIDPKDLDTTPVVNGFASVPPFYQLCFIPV

As for `Cc1ncsc1-c1ccc(CNC(=O)[C@@H]2C[C@@H](O)CN2C(=O)[C@@H](NC(=O)CCCNC(=O)c2ccc(-c3cnc(NCc4ccco4)n4cnnc34)cc2)C(C)(C)C)cc1`, the DC50 in series [1] was 0.67 µM.
As for `N#Cc1ccc(O[C@H]2CC[C@H](NC(=O)c3ccc(N4CCC(CN5CCN(c6cc7c(cc6F)C(=O)N(C6CCC(=O)NC6=O)C7=O)CC5)CC4)nn3)CC2)cc1Cl` (some centres not stated) [BAVDEGALUTAMIDE], the bioavailability in series [2] turned out to be 23.8%; in [3] it was 37.9%.
The compound `COc1cc(-c2cn(C)c(=O)c3[nH]ncc23)cc(OC)c1CN1CCN(C(=O)CN2CCC(c3ccc(NC4CCC(=O)NC4=O)cc3)CC2)CC1` (configuration not stated) came in with a bioavailability in series [4] of less than 1%. Besides, in [5], the DC50 came to 0.005 µM.
In turn, `COc1cc(N2CCC(N3CCN(CCC#Cc4cccc5c4CN(C4CCC(=O)NC4=O)C5=O)CC3)CC2)ccc1Nc1ncc(Cl)c(Nc2ccccc2P(C)(C)=O)n1` (configuration not stated) gave a Cmax in series [6] of 3680 ng/mL. Moreover, in series [7], the half-life was 2.08 h. The compound further yielded an AUC(0-t) at 24 h in [8] of 19700 ng·h/mL.
As to `Cc1ncsc1-c1ccc(CNC(=O)[C@@H]2C[C@@H](O)CN2C(=O)[C@@H](NC(=O)CCCCCCCCCCNC(=O)OC2C[C@@H](C)C=C3C=C[C@H](C)[C@H](CC[C@@H]4C[C@H](O)CC(=O)O4)[C@H]32)C(C)(C)C)cc1` (some centres not stated), the concentration in series [9] peaked (Cmax) at 470 ng/mL. The Tmax in series [10] amounted to 8 h. This compound also gave a half-life in series [11] of 5.1 h. Moreover, the AUC(0-t) in series [12] came out at 5000 ng·h/mL.
In series [13], `Cc1ncsc1-c1ccc([C@H](CC[C@H](C)CCN2CCC(c3ccc4c(c3)n(C3CCCC3)c3nc(=O)c5c(Br)cccc5n43)CC2)NC(=O)[C@@H]2C[C@@H](O)CN2C(=O)[C@@H](NC(=O)C2(F)CC2)C(C)(C)C)cc1` came in with a bioavailability of 22%. This compound showed an AUC(0-t) at 24 h in series [14] of 50000 ng·h/mL.
`CN1CCN([C@@H]2CCCN(c3cnc(C(N)=O)c(Nc4ccc(C5CCN(C[C@@H]6CCN(c7ccc8c(c7)C(=O)N(C7CCC(=O)NC7=O)C8=O)C6)CC5)cc4)n3)C2)C1=O` (some centres not stated): the DC50 in series [15] came to 0.0005 µM. For the same compound, the Emax in series [16] was found to be 96%.
Take `COc1cc(-c2cn(C)c(=O)c3cnccc23)cc(Cl)c1CN1CCC(C2CCN(C(=O)c3ccc(NC4CCC(=O)NC4=O)cc3C(F)(F)F)CC2)CC1` (configuration not stated): in [5], the DC50 is 0.011 µM. The figures for the bioavailability in series [17] and in [18] were 48% and 100%, respectively. The compound further had a CL/F in [19] of 30 mL/min/kg. Besides, the clearance in [20] is 74 mL/min/kg. The IC50 in series [21] is 7.5 µM; against Cytochrome P450 3A4, 5.6 µM; against Cytochrome P450 2C19 it was 1.9 µM; at Cytochrome P450 2D6, greater than 30 µM.
Take `Cc1ncsc1-c1ccc(CNC(=O)[C@@H]2C[C@@H](O)CN2C(=O)[C@@H](NC(=O)CCCCCCCCCCNC(=O)OC2C[C@@H](C)C=C3C=C[C@H](C)[C@H](CC[C@@H](O)C[C@H](O)CC(=O)O)[C@H]32)C(C)(C)C)cc1` (some centres not stated): in series [22], the maximum response (Emax) came out at 65%. In addition, the DC50 in series [23] was determined as 0.12 µM.
